This note sets out measurements from patent US20240270821A1, “GIP/GLP1/GCG TRI-RECEPTOR AGONISTS AND USES THEREOF” (priority 2023, published 2024).

The term EC50 denotes the concentration at which the effect is half-maximal.

Like-named read-outs stand apart in the source and are kept apart here. Starred links: 1 amine or outer side, 2 acyl side, 3 side chain; linkers in the order of their positions; H or OH if unused. Non-standard residues stand in square brackets, D forms with d. Groups on a side chain read outwards from the residue. *: point of attachment. C20 diacid = O=C(O)CCCCCCCCCCCCCCCCCCC(=O)*; C18 diacid = O=C(O)CCCCCCCCCCCCCCCCC(=O)*; γGlu = O=C(O)[C@H](CCC(=O)[*:2])N[*:1]; 4Pal = N[C@@H](Cc1ccncc1)C(=O)O; αMeL = CC(C)C[C@](C)(N)C(=O)O; Orn = NCCC[C@H](N)C(=O)O; AEEA = NCCOCCOCC(=O)O; Aib = CC(C)(N)C(=O)O

Holding throughout (type): cell-based
For experiment [1], the target named is human GLP1-R (Homo sapiens, UniProt P43220). Briefly: GLP1-R internalization assay in HEK293 cells. The following applies: for Internalization % TOP: normalized to maximum concentration of GLP-1 (100%).
human GLP1-R, sequence (P43220 24-463): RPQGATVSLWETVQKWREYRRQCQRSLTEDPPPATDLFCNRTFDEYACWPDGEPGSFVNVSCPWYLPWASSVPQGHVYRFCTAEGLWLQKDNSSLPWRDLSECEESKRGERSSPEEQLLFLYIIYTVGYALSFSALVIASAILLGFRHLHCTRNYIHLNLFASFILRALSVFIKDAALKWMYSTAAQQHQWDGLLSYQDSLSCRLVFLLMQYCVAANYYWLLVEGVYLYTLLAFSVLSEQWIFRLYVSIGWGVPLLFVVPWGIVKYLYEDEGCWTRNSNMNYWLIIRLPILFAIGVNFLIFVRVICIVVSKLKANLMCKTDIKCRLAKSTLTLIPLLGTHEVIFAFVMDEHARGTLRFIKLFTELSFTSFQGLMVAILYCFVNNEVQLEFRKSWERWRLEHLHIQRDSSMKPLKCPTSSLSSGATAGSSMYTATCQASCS
In experiment [2] the target is T1, hGIPR (Homo sapiens, UniProt P48546).
T1 sequence (P48546 22-466): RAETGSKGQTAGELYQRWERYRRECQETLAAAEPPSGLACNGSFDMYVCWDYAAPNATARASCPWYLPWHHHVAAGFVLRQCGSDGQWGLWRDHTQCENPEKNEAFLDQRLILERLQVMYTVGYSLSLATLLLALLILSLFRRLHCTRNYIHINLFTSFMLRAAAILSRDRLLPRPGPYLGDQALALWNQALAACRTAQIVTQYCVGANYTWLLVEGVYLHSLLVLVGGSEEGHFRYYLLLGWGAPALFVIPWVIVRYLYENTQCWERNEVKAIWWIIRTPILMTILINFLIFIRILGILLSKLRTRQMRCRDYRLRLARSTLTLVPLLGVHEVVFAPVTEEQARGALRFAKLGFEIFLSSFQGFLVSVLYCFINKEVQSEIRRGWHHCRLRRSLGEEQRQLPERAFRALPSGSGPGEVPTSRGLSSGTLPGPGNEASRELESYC
Briefly: Functional cAMP activation in the presence of 0.1% casein (no HSA).

The target in experiment [3] is hGcgR (Homo sapiens, UniProt P47871). Described as above.
hGcgR, sequence (P47871 26-477): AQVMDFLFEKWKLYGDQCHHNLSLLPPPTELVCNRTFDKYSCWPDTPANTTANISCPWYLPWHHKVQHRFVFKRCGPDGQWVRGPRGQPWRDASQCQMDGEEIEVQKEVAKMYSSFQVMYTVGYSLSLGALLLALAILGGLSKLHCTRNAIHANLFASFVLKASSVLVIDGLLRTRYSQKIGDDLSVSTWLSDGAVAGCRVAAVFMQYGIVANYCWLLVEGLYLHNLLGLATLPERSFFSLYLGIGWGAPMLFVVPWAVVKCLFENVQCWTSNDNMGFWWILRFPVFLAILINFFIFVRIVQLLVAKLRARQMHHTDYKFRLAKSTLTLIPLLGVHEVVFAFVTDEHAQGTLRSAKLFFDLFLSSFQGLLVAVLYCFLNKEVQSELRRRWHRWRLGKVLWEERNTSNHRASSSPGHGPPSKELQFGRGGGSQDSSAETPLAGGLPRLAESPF
In experiment [4] the target is T2, hGLP-1R (Homo sapiens, UniProt P43220). Described as above.
T2 sequence (P43220 24-463): as the sequence (P43220 24-463) above
Experiment [5] has as its target T1, hGIPR. Briefly: Functional cAMP activity in the presence of 1% HSA.
For experiment [6], the target named is T2, hGLP-1R. Briefly: Functional cAMP activity in the presence of 1% HSA.
In experiment [7] the target is human GcgR (Homo sapiens, UniProt P47871). Briefly: Functional cAMP activity in the presence of 1% HSA.
human GcgR, sequence (P47871 26-477): as the sequence (P47871 26-477) above
The mark [8] stands for this setting: HEK293 cells expressing SNAP-GLP-1R, read-out: GLP1R Internalization EC50.
The mark [9] stands for this setting: in the presence of 0.1% casein (no HSA), geometric mean, read-out: Relative cAMP EC50, hGIPR.
[10] abbreviates: in the presence of 0.1% casein (no HSA), geometric mean, read-out: Relative cAMP EC50, hGcgR.
Setting [11] is: in the presence of 0.1% casein (no HSA), geometric mean, read-out: Relative cAMP EC50, hGLP-1R.
Setting [12] is: read-out: cAMP Rel EC50, hGLP-1R.
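Throughout, for Relative cAMP EC50, hGIPR: intracellular cAMP rise after 30 min at 37 °C read by HTRF against a standard curve, scaled between buffer alone (0%) and top control ligand concentration (100%), four-parameter fit.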
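Throughout, for Relative cAMP EC50, hGLP-1R: intracellular cAMP rise after 30 min at 37 °C read by HTRF, normalized between buffer only (0%) and maximal control ligand (100%), four-parameter variable-slope fit.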
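Throughout, for Relative cAMP EC50, hGcgR: intracellular cAMP rise after 30 min at 37 °C, read by HTRF against a cAMP standard curve, scaled from buffer only (0%) to maximal control ligand response (100%).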

Consider “H-Y[Aib]QGTFTSDFSK[αMeL]LDKK([AEEA-γGlu-C20 diacid])AQ[Aib]AFIEYLLAGGPSSGAPPPSGE-NH2 [Example 11]”, for which the EC50 in experiment [1] (setting [8]) is 75.1 nM; in experiment [2] (setting [9]), 0.233 nM; in experiment [3] (setting [10]) it was 12.5 nM; in experiment [4] (setting [11]), 2.07 nM; in experiment [5] (read-out: cAMP Rel EC50, hGIPR), 40.8 nM; in experiment [6] (setting [12]), 337 nM. The concentration giving a half-maximal response (EC50) in experiment [7] (read-out: cAMP Rel EC50, hGcgR) was found to be 1700 nM. Moreover, the “Internalization % TOP” value in experiment [1] is listed as 73.8%.
Turning to “H-Y[Aib]QGTFTSDFSK[αMeL]LDKK([AEEA-γGlu-C20 diacid])AQ[Aib]AFIEWLLEGGPSSGAPPPSEG-NH2 [Example 37]”, the concentration for a half-maximal effect (EC50) in experiment [1] (setting [8]) stood at 51.6 nM; in experiment [2] (setting [9]) it was 0.207 nM; in experiment [3] (setting [10]), 6.83 nM; in experiment [4] (setting [11]) it was 1.66 nM; in experiment [5] (read-out: cAMP Rel EC50, hGIPR), 56.4 nM; in experiment [6] (setting [12]), 514 nM. In experiment [7] (read-out: cAMP Rel EC50, hGcgR), the EC50 is 1870 nM. Further, in experiment [1], the “Internalization % TOP” value is on record as 68.3%.
With “H-Y[Aib]QGTFTSDFSK[αMeL]LDKK([AEEA-γGlu-C20 diacid])AQ[Aib]AFIEYLLAGGPSSGEPPPSSG-NH2 [Example 7]”, the EC50 in experiment [1] (setting [8]) stood at 52.6 nM; in experiment [2] (setting [9]) it was 0.203 nM; in experiment [3] (setting [10]), 5.05 nM; in experiment [4] (setting [11]), 2.11 nM; in experiment [5] (read-out: cAMP Rel EC50, hGIPR), 50.6 nM; in experiment [6] (setting [12]) it was 494 nM. Moreover, the 50% effective concentration (EC50) in experiment [7] (read-out: cAMP Rel EC50, hGcgR) came out at 1210 nM. The “Internalization % TOP” value in experiment [1] came out at 76.3%.
Consider “H-Y[Aib]QGTFTSD[4Pal]SK[αMeL]LDKK([AEEA-γGlu-C18 diacid])AQ[Aib]AFIEYLIE[Aib]GESSGEPPPSGS-NH2 [Example 282]”, for which the EC50 in experiment [1] (setting [8]) came out at 28.7 nM; in experiment [2] (setting [9]) it was 0.163 nM; in experiment [3] (setting [10]), 6.98 nM; in experiment [4] (setting [11]), 1.09 nM; in experiment [5] (read-out: cAMP Rel EC50, hGIPR), 22.1 nM; in experiment [6] (setting [12]) it was 217 nM. In addition, the EC50 in experiment [7] (read-out: cAMP Rel EC50, hGcgR) was 1830 nM. The “Internalization % TOP” value in experiment [1] came to 71.9%.
Regarding “H-Y[Aib]QGTFTSDFS[Orn][αMeL]LDKK([AEEA-AEEA-γGlu-C18 diacid])AQ[Aib]AFIEYLLE[dA]GPSSGHPPPSG[4Pal]-NH2 [Example 256]”, the 50% effective concentration (EC50) in experiment [1] (setting [8]) turned out to be 87.8 nM; in experiment [2] (setting [9]), 0.176 nM; in experiment [3] (setting [10]), 5.71 nM; in experiment [4] (setting [11]), 2.87 nM; in experiment [5] (read-out: cAMP Rel EC50, hGIPR), 17.4 nM; in experiment [6] (setting [12]) it was 235 nM. The EC50 in experiment [7] (read-out: cAMP Rel EC50, hGcgR) stood at 625 nM. Moreover, the “Internalization % TOP” value in experiment [1] came out at 43.5%.
In the case of `CC[C@H](C)[C@H](NC(=O)[C@H](Cc1ccccc1)NC(=O)[C@H](C)NC(=O)C(C)(C)NC(=O)[C@H](CCC(N)=O)NC(=O)[C@H](C)NC(=O)[C@H](CCCCNC(=O)CC[C@H](NC(=O)CC[C@H](NC(=O)CC[C@H](NC(=O)CCCCCCCCCCCCCCCCC(=O)O)C(=O)O)C(=O)O)C(=O)O)NC(=O)[C@H](CCCCN)NC(=O)[C@H](CC(=O)O)NC(=O)[C@H](CC(C)C)NC(=O)[C@](C)(CC(C)C)NC(=O)[C@H](CCCN)NC(=O)[C@H](CO)NC(=O)[C@H](Cc1ccccc1)NC(=O)[C@H](CC(=O)O)NC(=O)[C@H](CO)NC(=O)[C@@H](NC(=O)[C@H](Cc1ccccc1)NC(=O)[C@@H](NC(=O)CNC(=O)[C@H](CCC(N)=O)NC(=O)C(C)(C)NC(=O)[C@@H](N)Cc1ccc(O)cc1)[C@@H](C)O)[C@@H](C)O)C(=O)N[C@@H](CCC(=O)O)C(=O)N[C@@H](Cc1ccc(O)cc1)C(=O)N[C@@H](CC(C)C)C(=O)N[C@@H](CC(C)C)C(=O)N[C@@H](CCC(=O)O)C(=O)N[C@H](C)C(=O)NCC(=O)N1CCC[C@H]1C(=O)N[C@@H](CO)C(=O)N[C@@H](CO)C(=O)NCC(=O)N[C@@H](C)C(=O)N1CCC[C@H]1C(=O)N1CCC[C@H]1C(=O)N1CCC[C@H]1C(=O)N[C@@H](CO)C(=O)NCC(=O)N[C@H](C(N)=O)[C@@H](C)O` [Example 205], the half-maximal effective concentration (EC50) came out at 49.4 nM in experiment [1] (setting [8]); 0.16 nM in experiment [2] (setting [9]); 8.98 nM in experiment [3] (setting [10]); 2.71 nM in experiment [4] (setting [11]); 24.4 nM in experiment [5] (read-out: cAMP Rel EC50, hGIPR); 234 nM in experiment [6] (setting [12]). Besides, in experiment [7] (read-out: cAMP Rel EC50, hGcgR), the EC50 is 397 nM. Also, the “Internalization % TOP” value in experiment [1] is given as 67.7%.
With “H-Y[Aib]QGTFTSDFSR[αMeL]LDKK([AEEA-γGlu-C20 diacid])AQ[Aib]AFIEYLLE[Aib]GPSSGAPPPGGS-NH2 [Example 42]”, the half-maximal effective concentration (EC50) in experiment [1] worked out at 61.4 nM; in experiment [2], 0.115 nM; in experiment [3], 5.83 nM; in experiment [4], 2.17 nM; in experiment [5], 32.3 nM; in experiment [6], 700 nM. For the same compound, the concentration giving a half-maximal response (EC50) in experiment [7] was found to be 1520 nM. In experiment [1], the “Internalization % TOP” value was 58.3%.
With “H-Y[Aib]QGTFTSDYS[Orn][αMeL]LDKK([AEEA-γGlu-C18 diacid])AQ[Aib]AFIEYLLEGGESSGAPPPSGS-NH2 [Example 359]”, the EC50 in experiment [1] (setting [8]) was 49.6 nM; in experiment [2] (setting [9]), 0.281 nM; in experiment [3] (setting [10]), 2.1 nM; in experiment [4] (setting [11]) it was 4.61 nM; in experiment [5] (read-out: cAMP Rel EC50, hGIPR), 103 nM; in experiment [6] (setting [12]), 826 nM. For the same compound, the EC50 in experiment [7] (read-out: cAMP Rel EC50, hGcgR) was determined as 957 nM. Besides, in experiment [1], the “Internalization % TOP” value came out at 74.4%.
Take “H-Y[Aib]QGTFTSDFS[Orn][αMeL]LDKK([AEEA-γGlu-C18 diacid])AQ[Aib]AFIEYLLEGGHSSGAPPPGGS-NH2 [Example 162]”: the EC50 was 48.8 nM in experiment [1] (setting [8]); 0.222 nM in experiment [2] (setting [9]); 4.72 nM in experiment [3] (setting [10]); 4.72 nM in experiment [4] (setting [11]); 37.5 nM in experiment [5] (read-out: cAMP Rel EC50, hGIPR); 786 nM in experiment [6] (setting [12]). For the same compound, the EC50 in experiment [7] (read-out: cAMP Rel EC50, hGcgR) came to 558 nM. In addition, in experiment [1], the “Internalization % TOP” value is on record as 44.8%.
For “H-Y[Aib]QGTFTSDFSK[αMeL]LDKK([AEEA-AEEA-γGlu-C20 diacid])AQ[Aib]AFIEYLLEGGPSSGAPPPGEG-NH2 [Example 17]”, the EC50 in experiment [1] (setting [8]) was determined as 66.2 nM; in experiment [2] (setting [9]), 0.317 nM; in experiment [3] (setting [10]), 8.33 nM; in experiment [4] (setting [11]) it was 2.96 nM; in experiment [5] (read-out: cAMP Rel EC50, hGIPR) it was 91.7 nM; in experiment [6] (setting [12]), 543 nM. Moreover, the concentration for a half-maximal effect (EC50) in experiment [7] (read-out: cAMP Rel EC50, hGcgR) came out at 2040 nM. In addition, the “Internalization % TOP” value in experiment [1] is given as 72.2%.
As for “H-Y[Aib]QGTFTSDFSK[αMeL]LDKK([AEEA-γGlu-C18 diacid])AQ[Aib]AFIEYLLE[Aib]GPSSGAPPPSEG-NH2 [Example 57]”, the 50% effective concentration (EC50) worked out at 76.6 nM in experiment [1] (setting [8]); 0.098 nM in experiment [2] (setting [9]); 4.37 nM in experiment [3] (setting [10]); 3.06 nM in experiment [4] (setting [11]); 3.78 nM in experiment [5] (read-out: cAMP Rel EC50, hGIPR); 42.7 nM in experiment [6] (setting [12]). The half-maximal effective concentration (EC50) in experiment [7] (read-out: cAMP Rel EC50, hGcgR) was 113 nM. Moreover, the “Internalization % TOP” value in experiment [1] turned out to be 73.1%.
